According to PubChem BioAssay AID1159564 (GlaxoSmithKline (GSK), 2015):
Activity calls are given as the source filed them. No rule for the calls is given here.

Tested on: L. donovani-infected THP-1 macrophages, intracellular amastigote imaging
Experiment: intracellular L. donovani amastigote inhibition, imaging, THP-1 host macrophages, host toxicity (AID 1159564)
[1] = measured here: THP-1 host cell toxicity
[2] = measured here: amastigotes per macrophage

SMILES | IC50 | IC50 [1] [µM] | IC50 [2] [µM]
CCCC(=O)N(Cc1ccccn1)c1nc2ccccc2s1 | > 50 µM (inactive) | > 50 | 10
O=C(Nc1ccc(C(F)(F)F)cc1)Nc1cccc([N+](=O)[O-])c1 | 2.5 µM | 6.3 | 2
COc1ccc(S(=O)(=O)Nc2ccccc2OC)cc1NC(=O)CCCc1c[nH]c2ccccc12 | > 50 µM (inactive) | > 50 | > 50
CCCn1c(NC(=O)CCn2cc(Br)cn2)nc2ccccc21 | 10 µM | > 50 | 5
CC(C)C[C@H](NC(=O)c1ccc(-c2ccccc2)o1)C(=O)NC1(C#N)CC1 | > 50 µM (inactive) | > 50 | 16
COc1cccc(-c2c(C)nn(-c3nc(N)nc(-c4ccccn4)n3)c2N)c1 | 2 µM | > 50 | 1.6
COc1cc(F)c2ncc(F)c(CCN3CC[C@H](NCc4cc5c(cn4)OCS5)[C@@H](O)C3)c2c1 | 16 µM | 16 | 13
COc1cccc(S(=O)(=O)Nc2ccc3c(c2)CC(N2CCC(NC(=O)C4CC4)CC2)C3)c1 (configuration not stated) | > 50 µM (inactive) | > 50 | 25
CC(C)c1nn(-c2nc(N)nc(-c3ccccn3)n2)c(N)c1C1CCCCC1 | 1 µM | 5 | 0.79
CC(c1ccc2c(c1)CCCC2)N(C)c1ncc2c(N)nc(N)nc2n1 (configuration not stated) | 2 µM | 25 | 0.79
CC(Cn1ccnc1)NC(=O)C=Cc1ccc(Cl)cc1 (configuration not stated) | > 50 µM (inactive) | > 50 | > 50
NCc1ccc2c(Cl)cc(Cl)c(O)c2n1 | 2 µM | 20 | 2
COCc1cnc2c(c1SCc1c(F)cccc1Cl)c(=O)n(C)c(=O)n2C | 5 µM | > 50 | 5
COc1cccc(C(=O)[C@H]2C[C@@H]2CN(Cc2ccccn2)Cc2ccccn2)c1 | 2 µM | > 50 | 1.6
O=C(NCc1ccc(Cl)cc1)C1CN(C(=O)c2ccc(F)cc2)CCS1 (configuration not stated) | > 50 µM (inactive) | > 50 | > 50
CN1C(=O)c2ccccc2Sc2ccc(NC(=O)NCc3ccco3)cc21 | > 50 µM (inactive) | > 50 | 25
CC(=O)Nc1ccc(Nc2nccc(-c3cnn4ncccc34)n2)cc1C(F)(F)F | 0.025 µM | 0.01 | 0.016
CN(Cc1ccc(C(N)=O)cc1)C(c1ccc(F)cc1)c1cccnc1 (configuration not stated) | > 50 µM (inactive) | > 50 | > 50
CC1CN(S(=O)(=O)c2ccc(NC(=O)c3cc(C4CC4)nc4c3cnn4C(C)C)cc2)CC(C)O1 (configuration not stated) | > 50 µM (inactive) | 10 | > 50
COc1ccccc1-n1c(SCC(=O)Nc2ccc3c(c2)OCO3)nc2c(c1=O)SCC2 | 7.9 µM | > 50 | 5
O=C(NCCc1ccn(-c2ccccc2)n1)C1CCCCC1 | > 50 µM (inactive) | > 50 | > 50
COCc1cc(Nc2ccccc2)nc(-c2ccccn2)n1 | 7.9 µM | > 50 | 5
Cc1cc(C)nc(N2CCC(N(Cc3cccnc3)C(=O)c3cccc(C#N)c3)CC2)n1 | > 50 µM (inactive) | > 50 | > 50

SMILES | IC50 | IC50 [1] [µM] | IC50 [2] [µM]
Cc1ccc(NC(C)C(=O)Nc2ccc(C#N)cc2)cc1S(=O)(=O)N1CCCCC1 (configuration not stated) | 10 µM | 50 | 5
O=C(Nc1ncc([N+](=O)[O-])s1)C1CC1 | > 50 µM (inactive) | > 50 | > 50
Clc1ccc(OCCN2CCCCC2c2cccnc2)c(Cl)c1 (configuration not stated) | > 50 µM (inactive) | > 50 | 5
O=C(Nc1ccc(S(=O)(=O)N2CCCC2)cc1)c1ccc([N+](=O)[O-])s1 | 1.6 µM | > 50 | 1
O=C(NCCc1csc(-c2ccc(F)cc2)n1)c1cccs1 | > 50 µM (inactive) | > 50 | 20
COc1ccc(CNc2cc(C3CC3)nc(-c3nccn3C)n2)cc1 | 0.79 µM | 13 | 0.79
N#Cc1c(Oc2cccc(Cl)c2)cccc1[N+](=O)[O-] | 10 µM | > 50 | 7.9
CC(=O)Nc1ccc(-c2ccnc(Nc3cccc(C#N)c3)n2)cc1 | 16 µM | 10 | 10
COc1ccc2ncc(=O)n(CCN3CCC(NCc4ccc(-c5cccs5)cc4)CC3)c2n1 | 3.2 µM | 10 | 1.3
COc1ccc(C(C)(C)C)cc1S(=O)(=O)n1ccnc1 | > 50 µM (inactive) | > 50 | 25
Cc1c(CNC(=O)c2ccc(Cn3cc(Cl)c([N+](=O)[O-])n3)cc2)cnn1C | > 50 µM (inactive) | > 50 | > 50
CN(C)S(=O)(=O)c1cccc(C(=O)Nc2nc(-c3ccccn3)cs2)c1 | 6.3 µM | 7.9 | 2.5
CNC(=O)Oc1ccc(C(=O)NCc2ccccc2)cc1OC(=O)NC | > 50 µM (inactive) | > 50 | > 50
COc1ccc(-c2cnc(C)o2)cc1S(=O)(=O)Nc1ccc(C)cc1C | 3.2 µM | > 50 | 2.5
COc1cnc2ccc(=O)n(CCN3CCC(NC(=O)Cc4ccc(Cl)c(Cl)c4)CC3)c2c1 | 40 µM | 25 | 5
O=C(CSc1nnc(-c2ccc3c(c2)OCO3)o1)N(Cc1ccco1)CC(F)(F)F | 7.9 µM | > 50 | 3.2
CC1(C)CCC(=Cc2ccc(Cl)cc2)CC1(O)Cn1ccnc1 (configuration not stated) | 7.9 µM | 13 | 2
CNc1cncc(C2CCCN2C(=O)Cc2ccc3ccccc3c2)n1 (configuration not stated) | > 50 µM (inactive) | > 50 | > 50
COCCn1cnc2cc(NC(=O)C3CCCCC3)cc(C(=O)N3CCc4sccc4C3)c21 | > 50 µM (inactive) | > 50 | > 50
O=C(NCCc1nc(-c2ccc(F)c(F)c2)n[nH]1)C1CCCCC1 | > 50 µM (inactive) | 20 | 16
Cn1nccc1NC(=O)Cn1ccc(-c2ccncc2)n1 | > 50 µM (inactive) | > 50 | > 50
O=C(CN(Cc1ccccn1)Cc1ccccn1)NCc1csc(-c2cccs2)n1 | 6.3 µM | > 50 | 3.2
O=c1cc(CSc2ccc(Cl)cc2)nc(-c2ccccn2)[nH]1 | 5 µM | 4 | 2

SMILES | IC50 | IC50 [1] [µM] | IC50 [2] [µM]
CCCNC(=O)Nc1cccc(-c2nc3ncccc3o2)c1 | 13 µM | 20 | 16
CCc1nn(-c2ncc(F)c(NC(C)C)n2)c(N)c1C1CCCCC1 | 3.2 µM | 16 | 1.6
COc1ccc(C2CC(c3ccc(NS(C)(=O)=O)cc3)=NN2C(=O)c2cccs2)cc1OC (configuration not stated) | 5 µM | > 50 | 4
CC(=Cc1ccccc1)CN1CCC(=O)N(Cc2cccnc2)CC1 | > 50 µM (inactive) | 40 | 32
Cc1c(C(=O)NCCCCn2ccnc2)oc2c(C)cccc12 | > 50 µM (inactive) | > 50 | > 50
Cc1sc(C)c(C(F)(F)F)c1CNCCCNc1cc(=O)c2ccccc2[nH]1 | 50 µM | 32 | 25
O=C(Nc1cccc(Cl)c1)N1CCCCC1c1cccnc1 (configuration not stated) | > 50 µM (inactive) | > 50 | > 50
O=C(c1ccccc1)N1CCC(C(=O)N2CCC(Oc3ccccc3Cl)CC2)CC1 | > 50 µM (inactive) | > 50 | 32
CN(Cc1nnnn1C1CCN(Cc2ccc(-n3ccnc3)cc2)CC1)c1ccc(F)cc1F | > 50 µM (inactive) | > 50 | 16
Cn1nc([N+](=O)[O-])nc1N1CCCCC1 | > 50 µM (inactive) | > 50 | > 50
CC(C)Nc1nc(Cl)nc2ccccc12 | 2.5 µM | 20 | 1.3
O=S(=O)(c1ccccc1C(F)(F)F)N1CCN(Cc2ccc(-n3ccnc3)cc2)CC1 | > 50 µM (inactive) | 16 | 25
c1ccc(-c2nc(NC3CCCC3)c3ccccc3n2)nc1 | 2 µM | 20 | 1.3
C[C@@H](Oc1cc(-n2cnc3ccc(C(O)CO)cc32)sc1C(N)=O)c1ccccc1C(F)(F)F (some centres not stated) | 20 µM | 16 | 13
CC(=O)Nc1nc(-c2cc(C)ccc2C)c(C)s1 | > 50 µM (inactive) | > 50 | 32
CS(=O)(=O)NC1CCC(Oc2cc3cnccc3cc2-c2ccsc2)CC1 (configuration not stated) | 50 µM | 16 | 20
O=C(NC(CO)c1ccc(F)cc1)c1ccc(-c2c[nH]c3ncccc23)s1 (configuration not stated) | 25 µM | 10 | 20
Cn1cc(CN2CCN(c3ccc4c(c3)CCN(C(=O)[C@H]3C[C@@H]3c3ccccc3)CC4)CC2)cn1 | 32 µM | 6.3 | 1
CC(C)(C)Nc1nc(-c2ccccn2)nc2ccccc12 | 1.6 µM | 16 | 1.3
CCC(CC)C(=O)Nc1ccc(-c2nnc(-c3ccc(OC)cc3)o2)cc1 | > 50 µM (inactive) | > 50 | > 50
O=c1ccc2ccc(F)c3c2n1C[C@H]3CN1CCN(CC(O)c2cc3c(cn2)OCS3)CC1 (some centres not stated) | > 50 µM (inactive) | > 50 | > 50
O=C(CC1(O)C(=O)N(Cc2ccccc2)c2ccc(Br)cc21)c1cccnc1 (configuration not stated) | > 50 µM (inactive) | 40 | 32
CCCCN(C(=O)c1ccc(NC(=O)C(C)C)cc1)c1ccccc1 | 5 µM | > 50 | 3.2
